How the values were obtained:
Test in all cases: DSF 100 kinase selectivity screen;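 note: compound tested at 20 µM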
Type in all cases: binding
[1] = target: T1, ~100 representative kinases (Homo sapiens, UniProt Q13873); details: Protein BMPR2; average of three replicates
T1 construct: Recombinant protein kinase domains with a concentration of 2 μM
T1 sequence (Q13873 27-1038): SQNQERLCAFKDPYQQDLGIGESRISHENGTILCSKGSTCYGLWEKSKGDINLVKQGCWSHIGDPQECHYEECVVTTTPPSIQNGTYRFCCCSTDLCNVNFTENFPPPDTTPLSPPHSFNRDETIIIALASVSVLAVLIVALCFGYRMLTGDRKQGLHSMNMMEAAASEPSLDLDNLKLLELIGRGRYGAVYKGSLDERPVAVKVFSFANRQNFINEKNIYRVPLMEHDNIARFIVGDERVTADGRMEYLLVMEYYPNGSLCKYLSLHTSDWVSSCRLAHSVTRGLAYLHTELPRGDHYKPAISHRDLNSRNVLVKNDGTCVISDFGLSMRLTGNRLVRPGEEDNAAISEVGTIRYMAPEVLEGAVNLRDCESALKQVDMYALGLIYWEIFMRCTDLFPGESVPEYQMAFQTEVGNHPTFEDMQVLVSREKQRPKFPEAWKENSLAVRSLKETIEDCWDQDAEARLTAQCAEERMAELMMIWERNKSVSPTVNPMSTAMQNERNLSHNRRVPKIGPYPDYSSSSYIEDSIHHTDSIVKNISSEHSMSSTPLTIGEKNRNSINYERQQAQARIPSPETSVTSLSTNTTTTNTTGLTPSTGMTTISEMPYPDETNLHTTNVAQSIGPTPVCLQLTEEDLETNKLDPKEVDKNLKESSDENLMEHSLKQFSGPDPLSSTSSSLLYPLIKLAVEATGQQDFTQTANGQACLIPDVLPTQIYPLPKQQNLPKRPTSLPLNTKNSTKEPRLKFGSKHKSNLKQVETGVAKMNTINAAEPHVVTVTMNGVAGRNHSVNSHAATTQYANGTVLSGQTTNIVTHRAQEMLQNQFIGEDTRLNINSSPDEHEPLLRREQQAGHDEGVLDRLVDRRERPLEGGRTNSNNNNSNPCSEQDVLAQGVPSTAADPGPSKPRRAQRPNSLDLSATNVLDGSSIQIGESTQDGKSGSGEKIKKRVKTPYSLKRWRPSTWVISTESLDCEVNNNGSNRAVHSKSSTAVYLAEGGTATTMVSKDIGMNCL
Method in brief: (§1)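 Each kinase domain, at 2 μM, is mixed with 20 μM test compound and SYPRO Orange in Hepes (20 mM, pH 7.5) with 500 mM NaCl. Temperature is then raised at 3°C/min and fluorescence-monitored unfolding yields the melting temperature change, ΔTm in degrees Celsius.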

[2] = target: T2, ~100 representative kinases (Homo sapiens, UniProt O75582); details: Protein RPS6KA5; DSF; average of three replicates
T2 construct: Recombinant protein kinase domains with a concentration of 2 μM
T2 sequence (O75582 whole entry, the tested form may be a part): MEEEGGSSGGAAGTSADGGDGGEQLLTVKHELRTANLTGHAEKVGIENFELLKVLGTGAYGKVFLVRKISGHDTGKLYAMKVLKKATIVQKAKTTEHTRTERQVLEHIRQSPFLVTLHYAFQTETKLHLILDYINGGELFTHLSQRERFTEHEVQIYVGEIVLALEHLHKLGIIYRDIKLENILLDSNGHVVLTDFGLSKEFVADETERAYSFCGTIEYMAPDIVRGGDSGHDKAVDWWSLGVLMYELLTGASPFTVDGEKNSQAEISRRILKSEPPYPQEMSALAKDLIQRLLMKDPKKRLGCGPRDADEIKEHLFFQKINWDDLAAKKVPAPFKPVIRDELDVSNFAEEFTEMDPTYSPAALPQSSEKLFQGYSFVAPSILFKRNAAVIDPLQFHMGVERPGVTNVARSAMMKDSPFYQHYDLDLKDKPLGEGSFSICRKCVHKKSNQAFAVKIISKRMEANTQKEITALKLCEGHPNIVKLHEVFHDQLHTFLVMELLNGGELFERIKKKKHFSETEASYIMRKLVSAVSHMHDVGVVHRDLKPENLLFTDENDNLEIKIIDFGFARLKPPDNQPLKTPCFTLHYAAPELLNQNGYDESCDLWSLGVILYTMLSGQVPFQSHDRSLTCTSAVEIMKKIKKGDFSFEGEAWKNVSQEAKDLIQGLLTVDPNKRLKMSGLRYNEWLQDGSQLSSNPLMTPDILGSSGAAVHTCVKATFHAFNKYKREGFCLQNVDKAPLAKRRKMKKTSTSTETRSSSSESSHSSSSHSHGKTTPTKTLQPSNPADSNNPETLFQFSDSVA
Method in brief: as §1

[3] = target: T3, ~100 representative kinases (Homo sapiens, UniProt Q96L34); details: protein MARK4; average of three replicates
T3 construct: Recombinant protein kinase domains with a concentration of 2 μM
T3 sequence (Q96L34 1-752): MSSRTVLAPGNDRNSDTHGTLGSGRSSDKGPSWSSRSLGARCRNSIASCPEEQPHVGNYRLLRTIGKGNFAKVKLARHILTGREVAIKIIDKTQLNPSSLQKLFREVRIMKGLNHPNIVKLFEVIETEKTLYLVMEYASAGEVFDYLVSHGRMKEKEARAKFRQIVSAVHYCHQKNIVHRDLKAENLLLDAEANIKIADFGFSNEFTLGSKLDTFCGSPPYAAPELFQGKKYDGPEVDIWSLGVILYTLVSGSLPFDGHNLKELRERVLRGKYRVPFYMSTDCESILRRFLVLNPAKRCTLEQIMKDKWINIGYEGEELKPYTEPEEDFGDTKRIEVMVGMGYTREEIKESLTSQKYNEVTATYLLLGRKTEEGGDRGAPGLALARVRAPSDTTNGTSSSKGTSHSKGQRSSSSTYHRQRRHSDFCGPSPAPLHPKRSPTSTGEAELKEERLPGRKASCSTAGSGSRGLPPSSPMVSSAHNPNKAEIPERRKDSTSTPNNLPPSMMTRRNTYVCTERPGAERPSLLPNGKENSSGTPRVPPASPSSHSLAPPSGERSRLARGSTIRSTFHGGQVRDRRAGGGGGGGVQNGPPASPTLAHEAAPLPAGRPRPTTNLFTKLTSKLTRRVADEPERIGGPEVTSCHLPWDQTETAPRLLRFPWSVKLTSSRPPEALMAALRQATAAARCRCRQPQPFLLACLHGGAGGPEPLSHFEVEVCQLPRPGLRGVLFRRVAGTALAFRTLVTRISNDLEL
Method in brief: as §1

[4] = target: T4, ~100 representative kinases (Homo sapiens, UniProt Q96RR4); details: Protein CAMKK2; average of three replicates
T4 construct: Recombinant protein kinase domains with a concentration of 2 μM
T4 sequence (Q96RR4 whole entry, the tested form may be a part): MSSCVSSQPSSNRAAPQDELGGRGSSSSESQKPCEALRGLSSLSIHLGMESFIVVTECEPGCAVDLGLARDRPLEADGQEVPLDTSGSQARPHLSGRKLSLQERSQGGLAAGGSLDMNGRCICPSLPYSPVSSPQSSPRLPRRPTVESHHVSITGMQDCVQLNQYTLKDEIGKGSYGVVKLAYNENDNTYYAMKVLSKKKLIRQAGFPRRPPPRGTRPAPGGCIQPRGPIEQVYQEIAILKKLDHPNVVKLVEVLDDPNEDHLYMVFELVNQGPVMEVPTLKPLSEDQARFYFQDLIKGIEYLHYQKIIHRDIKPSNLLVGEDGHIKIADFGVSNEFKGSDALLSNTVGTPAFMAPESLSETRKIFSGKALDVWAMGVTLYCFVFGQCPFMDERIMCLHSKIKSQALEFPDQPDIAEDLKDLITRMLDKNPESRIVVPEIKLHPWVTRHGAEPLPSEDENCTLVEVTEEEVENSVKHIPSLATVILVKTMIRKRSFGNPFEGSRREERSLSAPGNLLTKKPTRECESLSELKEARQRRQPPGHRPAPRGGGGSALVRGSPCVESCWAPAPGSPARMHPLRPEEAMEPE
Method in brief: as §1

[5] = target: T5, ~100 representative kinases (Homo sapiens, UniProt Q15418); details: Protein RPS6KA1; DSF; average of three replicates
T5 construct: Recombinant protein kinase domains with a concentration of 2 μM
T5 sequence (Q15418 whole entry, the tested form may be a part): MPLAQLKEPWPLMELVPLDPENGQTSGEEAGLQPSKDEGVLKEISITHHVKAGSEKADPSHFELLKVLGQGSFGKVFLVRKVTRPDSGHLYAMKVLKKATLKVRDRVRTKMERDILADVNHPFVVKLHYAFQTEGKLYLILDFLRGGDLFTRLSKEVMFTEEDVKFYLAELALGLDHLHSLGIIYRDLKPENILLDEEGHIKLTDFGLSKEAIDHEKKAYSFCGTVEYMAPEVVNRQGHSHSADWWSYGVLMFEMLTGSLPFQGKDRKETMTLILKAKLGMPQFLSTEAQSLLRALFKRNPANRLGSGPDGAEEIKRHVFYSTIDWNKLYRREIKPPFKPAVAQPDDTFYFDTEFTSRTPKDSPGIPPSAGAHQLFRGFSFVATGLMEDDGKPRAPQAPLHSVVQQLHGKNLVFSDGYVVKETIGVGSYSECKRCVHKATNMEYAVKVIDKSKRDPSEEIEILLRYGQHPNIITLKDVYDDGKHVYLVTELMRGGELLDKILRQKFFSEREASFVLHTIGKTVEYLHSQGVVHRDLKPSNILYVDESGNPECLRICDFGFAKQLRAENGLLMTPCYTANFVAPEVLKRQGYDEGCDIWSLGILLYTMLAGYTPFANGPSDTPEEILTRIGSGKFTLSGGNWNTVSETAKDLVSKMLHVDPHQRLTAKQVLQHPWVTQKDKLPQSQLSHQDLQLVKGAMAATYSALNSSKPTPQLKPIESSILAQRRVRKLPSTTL
Method in brief: as §1

[6] = target: T6, ~100 representative kinases (Homo sapiens, UniProt P49674); details: Protein CSNK1E; average of three replicates
T6 construct: Recombinant protein kinase domains with a concentration of 2 μM
T6 sequence (P49674 whole entry, the tested form may be a part): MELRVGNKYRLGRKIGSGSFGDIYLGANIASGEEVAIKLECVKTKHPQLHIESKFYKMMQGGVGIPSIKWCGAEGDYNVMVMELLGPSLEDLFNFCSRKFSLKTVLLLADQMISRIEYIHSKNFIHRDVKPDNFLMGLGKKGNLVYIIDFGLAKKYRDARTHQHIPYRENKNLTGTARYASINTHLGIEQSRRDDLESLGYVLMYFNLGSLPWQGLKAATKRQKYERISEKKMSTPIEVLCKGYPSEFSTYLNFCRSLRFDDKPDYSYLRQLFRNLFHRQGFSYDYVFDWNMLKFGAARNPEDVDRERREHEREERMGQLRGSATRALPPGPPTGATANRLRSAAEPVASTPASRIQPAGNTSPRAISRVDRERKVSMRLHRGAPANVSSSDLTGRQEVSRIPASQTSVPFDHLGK
Method in brief: as §1

[7] = target: T7, ~100 representative kinases (Homo sapiens, UniProt Q15375); details: Protein EPHA7; average of three replicates
T7 construct: Recombinant protein kinase domains with a concentration of 2 μM
T7 sequence (Q15375 28-998): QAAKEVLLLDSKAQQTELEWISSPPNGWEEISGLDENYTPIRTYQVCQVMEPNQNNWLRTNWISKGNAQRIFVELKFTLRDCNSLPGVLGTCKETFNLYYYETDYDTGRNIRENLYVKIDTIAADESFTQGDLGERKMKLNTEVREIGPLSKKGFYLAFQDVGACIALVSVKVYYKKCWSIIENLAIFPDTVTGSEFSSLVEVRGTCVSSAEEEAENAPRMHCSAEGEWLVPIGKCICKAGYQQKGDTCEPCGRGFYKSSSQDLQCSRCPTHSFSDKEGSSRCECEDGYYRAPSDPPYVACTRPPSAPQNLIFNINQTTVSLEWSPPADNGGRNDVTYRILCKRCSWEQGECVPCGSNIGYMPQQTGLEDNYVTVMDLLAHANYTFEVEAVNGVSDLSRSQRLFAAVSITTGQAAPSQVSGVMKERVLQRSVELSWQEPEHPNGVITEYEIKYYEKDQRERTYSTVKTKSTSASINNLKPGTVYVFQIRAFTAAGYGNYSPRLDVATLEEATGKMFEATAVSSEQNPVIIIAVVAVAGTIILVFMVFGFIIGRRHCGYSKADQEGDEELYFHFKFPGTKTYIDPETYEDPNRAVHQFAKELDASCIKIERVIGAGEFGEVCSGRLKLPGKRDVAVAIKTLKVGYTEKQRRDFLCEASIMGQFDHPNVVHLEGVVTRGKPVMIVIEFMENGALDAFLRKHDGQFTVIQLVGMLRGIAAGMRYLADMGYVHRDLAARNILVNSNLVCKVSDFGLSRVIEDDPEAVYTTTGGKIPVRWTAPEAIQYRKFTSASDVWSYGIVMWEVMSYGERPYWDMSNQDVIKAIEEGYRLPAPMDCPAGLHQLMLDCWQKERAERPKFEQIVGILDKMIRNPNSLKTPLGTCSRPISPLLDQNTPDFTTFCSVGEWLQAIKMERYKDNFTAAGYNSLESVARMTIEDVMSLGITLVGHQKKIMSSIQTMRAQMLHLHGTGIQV
Method in brief: as §1

[8] = target: T8, ~100 representative kinases (Homo sapiens, UniProt Q99640); details: protein PKMYT1; average of three replicates
T8 construct: Recombinant protein kinase domains with a concentration of 2 μM
T8 sequence (Q99640 1-499): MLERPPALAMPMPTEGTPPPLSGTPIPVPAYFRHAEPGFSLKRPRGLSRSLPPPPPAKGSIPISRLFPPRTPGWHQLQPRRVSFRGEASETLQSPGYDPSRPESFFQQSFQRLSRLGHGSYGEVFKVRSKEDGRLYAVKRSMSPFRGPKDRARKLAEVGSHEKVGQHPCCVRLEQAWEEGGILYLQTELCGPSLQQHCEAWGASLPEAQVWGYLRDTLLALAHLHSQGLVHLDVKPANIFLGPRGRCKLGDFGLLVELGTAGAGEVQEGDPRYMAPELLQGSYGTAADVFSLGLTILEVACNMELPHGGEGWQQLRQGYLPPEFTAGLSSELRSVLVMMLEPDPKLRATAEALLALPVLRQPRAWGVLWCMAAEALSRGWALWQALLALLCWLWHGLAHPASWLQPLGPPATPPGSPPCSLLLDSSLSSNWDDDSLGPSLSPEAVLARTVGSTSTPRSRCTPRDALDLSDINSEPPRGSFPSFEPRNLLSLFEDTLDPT
Method in brief: as §1

| Compound | dTm [1] [K] | dTm [2] [K] | dTm [3] [K] | dTm [4] [K] | dTm [5] [K] | dTm [6] [K] | dTm [7] [K] | dTm [8] [K] |
| --- | --- | --- | --- | --- | --- | --- | --- | --- |
| COc1cc2c(Oc3ccc(NC(=O)C4(C(=O)Nc5ccc(F)cc5)CC4)cc3F)ccnc2cc1OCCCN1CCOCC1 [Foretinib, reference compound] | 0.59 | 0.57 | 1.64 | 10.75 | -0.88 | 3.48 | -0.16 | 0.92 |
| CC(C)(C)c1cc(NC(=O)Nc2cccc(-c3c[nH]c4ncnc(N5CCOCC5)c34)c2)n(-c2ccc3ncccc3c2)n1 [Compound 28] | 0.69 | 16.84 | 4.38 | 12.27 | 0.32 | 1.81 | 1.92 | 0.83 |
| O=C(Nc1cccc(-c2c[nH]c3ncnc(N4CCOCC4)c23)c1)C1(C(=O)Nc2cccc3c2CCC3)CC1 [Compound 11] | 0.44 | 0.69 | 0.00 | 5.02 | 0.47 | 4.91 | 1.36 | -0.88 |
| Cc1ccc(NC(=O)C2(C(=O)Nc3cccc(-c4c[nH]c5ncnc(N6CCOCC6)c45)c3)CC2)cc1 [Compound 14] | 1.10 | 3.04 | 3.97 | 4.94 | 0.14 | 3.41 | -1.63 | 0.43 |
| O=C(Nc1ccc(Cl)cc1)C1(C(=O)Nc2cccc(-c3c[nH]c4ncnc(N5CCOCC5)c34)c2)CC1 [Compound 13] | 1.26 | 5.83 | 5.82 | 7.83 | -0.42 | 5.46 | 0.19 | 0.52 |
| O=C(Nc1ccc(F)cc1)C1(C(=O)Nc2cccc(-c3c[nH]c4ncnc(N5CCOCC5)c34)c2)CC1 [Compound 2] | 0.92 | 4.64 | 3.91 | 7.29 | 0.23 | 4.37 | -1.78 | -2.28 |
| Cc1cc(F)ccc1NC(=O)C1(C(=O)Nc2cccc(-c3c[nH]c4ncnc(N5CCOCC5)c34)c2)CC1 [Compound 24] | 0.57 | -1.10 | 2.55 | 6.43 | 0.19 | 3.91 | -2.57 | -0.26 |
| O=C(Nc1cccc(-c2c[nH]c3ncnc(N4CCOCC4)c23)c1)C1(C(=O)Nc2ccc(F)c(Br)c2F)CC1 [Compound 26] | 0.05 | -0.55 | 1.86 | 5.53 | 0.78 | 4.57 | 1.95 | -0.69 |
| CCc1ccc(NC(=O)C2(C(=O)Nc3cccc(-c4c[nH]c5ncnc(N6CCOCC6)c45)c3)CC2)cc1 [Compound 15] | 0.80 | 2.22 | 4.84 | 5.52 | 0.29 | 2.91 | -2.17 | 0.54 |
| O=C(Nc1cccc(-c2c[nH]c3ncnc(N4CCOCC4)c23)c1)C1(C(=O)Nc2cc(Br)c(F)cc2F)CC1 [Compound 25] | 0.20 | 0.35 | -6.37 | 6.31 | -1.87 | 2.14 | 2.86 | -1.04 |
| O=C(Nc1cc(F)cc(Br)c1)C1(C(=O)Nc2cccc(-c3c[nH]c4ncnc(N5CCOCC5)c34)c2)CC1 [Compound 27] | 0.25 | 0.67 | 1.77 | 3.64 | 0.00 | 4.18 | 2.33 | -2.72 |

Now from value to compound:

| dTm [1] [K] | dTm [2] [K] | dTm [3] [K] | dTm [4] [K] | dTm [5] [K] | dTm [6] [K] | dTm [7] [K] | dTm [8] [K] | Compound |
| --- | --- | --- | --- | --- | --- | --- | --- | --- |
| -0.62 | 6.08 | 5.43 | 9.18 | 0.26 | 6.33 | 2.85 | -0.61 | O=C(Nc1cccc(-c2c[nH]c3ncnc(N4CCOCC4)c23)c1)C1(C(=O)Nc2ccc(F)c(Br)c2)CC1 [Compound 19] |
| 1.13 | -1.56 | 4.93 | 9.58 | 0.70 | 5.76 | 0.26 | -1.54 | O=C(Nc1cccc(-c2c[nH]c3ncnc(N4CCOCC4)c23)c1)C1(C(=O)Nc2ccc(F)c(Cl)c2)CC1 [Compound 18] |
| 0.48 | 0.21 | 2.27 | 1.74 | -0.37 | 2.19 | -2.77 | -0.09 | COc1ccc(NC(=O)C2(C(=O)Nc3cccc(-c4c[nH]c5ncnc(N6CCOCC6)c45)c3)CC2)cc1 [Compound 16] |
| 0.95 | 6.14 | 3.95 | 6.90 | 0.38 | 5.09 | -1.27 | 0.00857 | O=C(Nc1cccc(-c2c[nH]c3ncnc(N4CCOCC4)c23)c1)C1(C(=O)Nc2ccc(F)c(F)c2)CC1 [Compound 17] |
| 0.78 | 4.31 | 4.12 | 8.27 | 0.11 | 5.78 | -1.98 | -0.64 | COc1cc(NC(=O)C2(C(=O)Nc3cccc(-c4c[nH]c5ncnc(N6CCOCC6)c45)c3)CC2)ccc1F [Compound 21] |

— paper PMC12136037, “Type II kinase inhibitors that target Parkinson’s disease–associated LRRK2” (Science Advances, 2025)
